# Measured values as given in ChEMBL document CHEMBL5291721, “A preclinical secondary pharmacology resource illuminates target-adverse drug reaction associations of marketed drugs” (Nat Commun, 2023).
# Key:
# [1] = target: T1, Alpha-2C adrenergic receptor (Homo sapiens, UniProt P18825); format: functional
# T1 sequence (P18825 whole entry): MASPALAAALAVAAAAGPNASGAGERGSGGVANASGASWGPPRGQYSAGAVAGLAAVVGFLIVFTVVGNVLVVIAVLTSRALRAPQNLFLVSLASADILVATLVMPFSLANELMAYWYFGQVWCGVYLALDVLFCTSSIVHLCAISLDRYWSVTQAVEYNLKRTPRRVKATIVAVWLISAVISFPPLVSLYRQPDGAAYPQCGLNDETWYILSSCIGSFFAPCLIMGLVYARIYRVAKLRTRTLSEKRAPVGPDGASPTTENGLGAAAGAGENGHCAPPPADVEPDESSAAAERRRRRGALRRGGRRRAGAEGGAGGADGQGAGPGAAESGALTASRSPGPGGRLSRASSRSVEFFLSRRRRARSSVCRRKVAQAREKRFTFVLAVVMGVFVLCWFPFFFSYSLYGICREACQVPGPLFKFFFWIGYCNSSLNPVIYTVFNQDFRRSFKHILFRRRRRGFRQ
# [2] = target: Sodium-dependent noradrenaline transporter (Homo sapiens, UniProt P23975)
# D(1A) dopamine receptor = D(1A) dopamine receptor (Homo sapiens, UniProt P21728); format: functional, cell-based
# [3] = target: T2, 5-hydroxytryptamine receptor 2B (Homo sapiens, UniProt P41595); format: functional, cell-based
# [4] = target: T2, 5-hydroxytryptamine receptor 2B; format: functional, cell-based; remark: listed apart in the source
# Histamine H1 receptor = Histamine H1 receptor (Homo sapiens, UniProt P35367)
# [5] = target: Voltage-dependent L-type calcium channel subunit alpha-1C (Rattus norvegicus, UniProt P22002); format: functional
# [6] = target: Neuronal acetylcholine receptor subunit alpha-4 (Homo sapiens, UniProt P43681)
# [7] = target: Kappa-type opioid receptor (Homo sapiens, UniProt P41145)
# [8] = target: Gamma-aminobutyric acid receptor subunit alpha-1 (Rattus norvegicus, UniProt P62813); format: functional
# [9] = target: T3, Alpha-2B adrenergic receptor (Homo sapiens, UniProt P18089)
# T3 sequence (P18089 whole entry): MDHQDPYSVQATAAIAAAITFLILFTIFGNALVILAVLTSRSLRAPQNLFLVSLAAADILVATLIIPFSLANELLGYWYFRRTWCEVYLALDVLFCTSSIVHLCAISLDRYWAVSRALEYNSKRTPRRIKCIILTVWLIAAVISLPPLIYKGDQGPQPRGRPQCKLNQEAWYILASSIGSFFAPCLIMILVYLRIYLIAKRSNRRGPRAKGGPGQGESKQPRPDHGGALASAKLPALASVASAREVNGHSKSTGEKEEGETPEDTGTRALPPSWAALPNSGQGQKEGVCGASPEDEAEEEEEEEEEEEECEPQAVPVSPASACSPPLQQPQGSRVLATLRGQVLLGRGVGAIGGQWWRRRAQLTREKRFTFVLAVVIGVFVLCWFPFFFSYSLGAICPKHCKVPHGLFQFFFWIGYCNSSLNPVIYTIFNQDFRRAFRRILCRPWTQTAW
# Adenosine receptor A1 = target: T4, Adenosine receptor A1 (Homo sapiens, UniProt P30542)
# T4 sequence (P30542 whole entry): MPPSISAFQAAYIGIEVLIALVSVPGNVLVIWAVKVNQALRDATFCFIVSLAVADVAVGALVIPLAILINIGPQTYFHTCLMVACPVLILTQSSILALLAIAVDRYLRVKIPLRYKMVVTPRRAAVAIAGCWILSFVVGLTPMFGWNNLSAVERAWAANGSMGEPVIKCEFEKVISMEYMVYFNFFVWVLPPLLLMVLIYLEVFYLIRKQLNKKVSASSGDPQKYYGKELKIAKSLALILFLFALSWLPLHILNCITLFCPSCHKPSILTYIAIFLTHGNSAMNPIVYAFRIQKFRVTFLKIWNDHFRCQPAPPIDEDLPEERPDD
# [10] = target: T5, Muscarinic acetylcholine receptor M1 (Homo sapiens, UniProt P11229); format: functional
# T5 sequence (P11229 whole entry): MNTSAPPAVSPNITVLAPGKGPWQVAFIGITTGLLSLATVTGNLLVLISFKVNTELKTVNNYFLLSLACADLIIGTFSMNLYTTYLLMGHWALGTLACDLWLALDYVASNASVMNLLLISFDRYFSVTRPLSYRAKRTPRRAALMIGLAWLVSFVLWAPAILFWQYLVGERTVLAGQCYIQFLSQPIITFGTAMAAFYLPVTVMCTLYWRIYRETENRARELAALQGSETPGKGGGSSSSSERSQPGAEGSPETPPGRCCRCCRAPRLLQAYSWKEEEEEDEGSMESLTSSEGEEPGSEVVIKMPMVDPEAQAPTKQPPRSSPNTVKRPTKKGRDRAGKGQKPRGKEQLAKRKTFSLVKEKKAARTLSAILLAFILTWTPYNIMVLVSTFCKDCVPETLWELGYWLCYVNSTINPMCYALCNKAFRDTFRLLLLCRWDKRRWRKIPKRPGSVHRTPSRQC
# [11] = target: T6, Neuropeptide Y receptor type 1 (Homo sapiens, UniProt P25929)
# T6 sequence (P25929 whole entry): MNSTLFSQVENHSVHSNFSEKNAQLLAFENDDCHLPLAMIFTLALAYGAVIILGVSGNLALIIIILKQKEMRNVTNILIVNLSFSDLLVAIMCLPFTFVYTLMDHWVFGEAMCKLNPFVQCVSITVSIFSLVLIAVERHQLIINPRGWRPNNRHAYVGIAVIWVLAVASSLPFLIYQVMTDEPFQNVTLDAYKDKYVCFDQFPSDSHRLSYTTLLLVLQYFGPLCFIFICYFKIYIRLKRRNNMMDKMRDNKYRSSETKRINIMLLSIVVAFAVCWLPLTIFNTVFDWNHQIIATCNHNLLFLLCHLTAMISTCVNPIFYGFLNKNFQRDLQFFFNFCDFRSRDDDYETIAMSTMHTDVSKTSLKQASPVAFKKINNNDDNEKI
# [12] = target: Growth hormone secretagogue receptor type 1 (Homo sapiens, UniProt Q92847)
# Vasopressin V2 receptor = Vasopressin V2 receptor (Homo sapiens, UniProt P30518)
# Note: assay procedure not described here.
# Sequence of Neuronal acetylcholine receptor subunit alpha-4 (P43681 whole entry): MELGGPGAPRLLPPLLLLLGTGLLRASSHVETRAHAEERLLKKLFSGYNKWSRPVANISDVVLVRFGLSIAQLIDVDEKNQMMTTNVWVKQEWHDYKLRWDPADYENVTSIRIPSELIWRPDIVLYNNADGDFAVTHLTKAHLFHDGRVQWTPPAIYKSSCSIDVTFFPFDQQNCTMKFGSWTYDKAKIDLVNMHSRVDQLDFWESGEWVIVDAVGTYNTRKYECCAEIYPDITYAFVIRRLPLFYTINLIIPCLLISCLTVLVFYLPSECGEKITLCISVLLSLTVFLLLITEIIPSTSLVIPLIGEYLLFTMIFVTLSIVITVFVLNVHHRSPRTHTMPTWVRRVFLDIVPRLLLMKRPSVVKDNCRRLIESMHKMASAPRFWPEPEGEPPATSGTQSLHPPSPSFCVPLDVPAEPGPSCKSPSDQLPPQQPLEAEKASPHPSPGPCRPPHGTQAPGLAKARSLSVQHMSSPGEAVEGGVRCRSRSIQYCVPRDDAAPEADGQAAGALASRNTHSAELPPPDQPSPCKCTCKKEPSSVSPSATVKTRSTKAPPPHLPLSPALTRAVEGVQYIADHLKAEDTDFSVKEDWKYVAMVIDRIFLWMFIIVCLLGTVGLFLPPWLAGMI
# Sequence of D(1A) dopamine receptor (P21728 whole entry): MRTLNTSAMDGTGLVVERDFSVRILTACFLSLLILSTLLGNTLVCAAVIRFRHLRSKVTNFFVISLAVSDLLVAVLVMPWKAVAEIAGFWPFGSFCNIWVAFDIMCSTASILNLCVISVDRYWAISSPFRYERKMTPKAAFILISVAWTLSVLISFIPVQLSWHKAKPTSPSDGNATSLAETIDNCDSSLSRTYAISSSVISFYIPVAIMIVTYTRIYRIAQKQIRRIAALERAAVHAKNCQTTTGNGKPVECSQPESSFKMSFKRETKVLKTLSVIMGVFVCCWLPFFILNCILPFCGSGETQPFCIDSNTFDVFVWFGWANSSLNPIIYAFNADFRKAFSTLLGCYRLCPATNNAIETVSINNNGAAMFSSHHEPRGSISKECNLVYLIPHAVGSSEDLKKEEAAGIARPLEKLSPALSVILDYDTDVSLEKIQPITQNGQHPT
# Sequence of Histamine H1 receptor (P35367 whole entry): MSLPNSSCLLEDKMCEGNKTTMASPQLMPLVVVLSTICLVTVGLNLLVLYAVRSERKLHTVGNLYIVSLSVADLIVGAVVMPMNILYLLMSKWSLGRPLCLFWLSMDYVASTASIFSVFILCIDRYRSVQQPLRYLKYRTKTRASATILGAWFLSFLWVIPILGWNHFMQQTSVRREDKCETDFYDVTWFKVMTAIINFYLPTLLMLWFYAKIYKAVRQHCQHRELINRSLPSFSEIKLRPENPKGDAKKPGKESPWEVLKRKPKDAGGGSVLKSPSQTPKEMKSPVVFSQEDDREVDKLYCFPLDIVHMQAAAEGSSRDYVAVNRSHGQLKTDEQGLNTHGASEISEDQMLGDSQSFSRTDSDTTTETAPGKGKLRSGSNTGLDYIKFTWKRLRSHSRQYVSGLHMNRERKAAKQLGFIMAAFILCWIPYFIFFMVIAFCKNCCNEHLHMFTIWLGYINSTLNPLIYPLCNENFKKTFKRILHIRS
# T2 sequence (P41595 whole entry): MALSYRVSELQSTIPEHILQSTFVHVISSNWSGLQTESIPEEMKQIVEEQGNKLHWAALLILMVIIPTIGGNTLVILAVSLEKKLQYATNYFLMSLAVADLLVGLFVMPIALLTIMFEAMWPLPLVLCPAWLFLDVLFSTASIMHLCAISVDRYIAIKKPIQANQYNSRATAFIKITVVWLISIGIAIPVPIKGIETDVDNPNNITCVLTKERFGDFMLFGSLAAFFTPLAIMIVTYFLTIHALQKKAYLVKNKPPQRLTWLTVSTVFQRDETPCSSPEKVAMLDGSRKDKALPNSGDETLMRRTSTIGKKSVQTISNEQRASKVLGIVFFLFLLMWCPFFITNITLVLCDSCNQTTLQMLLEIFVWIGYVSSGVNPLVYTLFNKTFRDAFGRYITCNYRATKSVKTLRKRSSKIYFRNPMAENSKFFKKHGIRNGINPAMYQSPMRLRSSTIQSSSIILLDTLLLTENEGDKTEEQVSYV
# Sequence of Sodium-dependent noradrenaline transporter (P23975 whole entry): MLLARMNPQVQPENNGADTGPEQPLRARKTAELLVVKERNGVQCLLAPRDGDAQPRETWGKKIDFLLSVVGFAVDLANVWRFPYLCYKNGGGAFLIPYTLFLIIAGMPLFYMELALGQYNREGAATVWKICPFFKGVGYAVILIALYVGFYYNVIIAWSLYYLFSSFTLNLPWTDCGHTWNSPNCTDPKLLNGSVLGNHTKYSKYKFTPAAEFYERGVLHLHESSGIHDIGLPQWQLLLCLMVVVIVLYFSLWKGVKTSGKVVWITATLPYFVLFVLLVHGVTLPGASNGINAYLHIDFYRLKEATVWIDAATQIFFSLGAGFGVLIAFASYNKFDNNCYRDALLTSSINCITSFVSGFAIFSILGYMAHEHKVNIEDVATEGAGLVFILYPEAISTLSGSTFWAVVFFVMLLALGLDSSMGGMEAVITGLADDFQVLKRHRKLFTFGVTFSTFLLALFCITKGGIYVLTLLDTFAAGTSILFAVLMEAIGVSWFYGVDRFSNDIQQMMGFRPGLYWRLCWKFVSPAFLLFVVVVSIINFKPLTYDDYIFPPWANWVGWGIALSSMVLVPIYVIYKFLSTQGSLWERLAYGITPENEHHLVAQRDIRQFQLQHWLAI
# Sequence of Kappa-type opioid receptor (P41145 whole entry): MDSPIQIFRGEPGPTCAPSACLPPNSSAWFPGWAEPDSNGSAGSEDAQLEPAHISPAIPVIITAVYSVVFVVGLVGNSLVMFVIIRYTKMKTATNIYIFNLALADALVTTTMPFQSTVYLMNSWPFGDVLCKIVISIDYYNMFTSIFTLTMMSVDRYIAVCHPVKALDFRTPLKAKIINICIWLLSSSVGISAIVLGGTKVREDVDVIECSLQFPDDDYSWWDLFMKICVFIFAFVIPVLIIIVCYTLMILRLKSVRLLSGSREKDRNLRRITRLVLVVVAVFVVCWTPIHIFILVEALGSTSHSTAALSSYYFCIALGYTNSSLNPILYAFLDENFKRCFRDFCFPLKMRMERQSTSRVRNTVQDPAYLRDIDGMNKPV
# Sequence of Gamma-aminobutyric acid receptor subunit alpha-1 (P62813 whole entry): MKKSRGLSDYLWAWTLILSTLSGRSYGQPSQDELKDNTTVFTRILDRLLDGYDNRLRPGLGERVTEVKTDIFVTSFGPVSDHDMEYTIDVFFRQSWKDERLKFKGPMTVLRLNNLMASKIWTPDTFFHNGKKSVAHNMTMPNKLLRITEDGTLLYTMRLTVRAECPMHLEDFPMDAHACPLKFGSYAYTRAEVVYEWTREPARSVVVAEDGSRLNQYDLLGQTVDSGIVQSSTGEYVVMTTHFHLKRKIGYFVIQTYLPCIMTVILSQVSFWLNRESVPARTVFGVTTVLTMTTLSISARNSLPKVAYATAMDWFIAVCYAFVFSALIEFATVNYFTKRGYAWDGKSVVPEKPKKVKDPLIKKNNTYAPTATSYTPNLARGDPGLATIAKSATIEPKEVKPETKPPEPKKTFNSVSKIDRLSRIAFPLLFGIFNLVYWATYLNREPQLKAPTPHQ
# Sequence of Vasopressin V2 receptor (P30518 whole entry): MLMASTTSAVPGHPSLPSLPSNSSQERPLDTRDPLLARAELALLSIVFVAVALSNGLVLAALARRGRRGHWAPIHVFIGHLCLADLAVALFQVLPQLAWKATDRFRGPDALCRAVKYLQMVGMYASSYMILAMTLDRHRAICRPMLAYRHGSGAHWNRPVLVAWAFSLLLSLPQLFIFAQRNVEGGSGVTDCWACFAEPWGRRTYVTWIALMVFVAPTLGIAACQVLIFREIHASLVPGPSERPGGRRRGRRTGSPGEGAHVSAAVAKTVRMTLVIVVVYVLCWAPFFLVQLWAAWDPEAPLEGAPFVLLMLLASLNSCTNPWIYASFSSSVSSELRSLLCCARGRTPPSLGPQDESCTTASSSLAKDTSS
# Sequence of Growth hormone secretagogue receptor type 1 (Q92847 whole entry): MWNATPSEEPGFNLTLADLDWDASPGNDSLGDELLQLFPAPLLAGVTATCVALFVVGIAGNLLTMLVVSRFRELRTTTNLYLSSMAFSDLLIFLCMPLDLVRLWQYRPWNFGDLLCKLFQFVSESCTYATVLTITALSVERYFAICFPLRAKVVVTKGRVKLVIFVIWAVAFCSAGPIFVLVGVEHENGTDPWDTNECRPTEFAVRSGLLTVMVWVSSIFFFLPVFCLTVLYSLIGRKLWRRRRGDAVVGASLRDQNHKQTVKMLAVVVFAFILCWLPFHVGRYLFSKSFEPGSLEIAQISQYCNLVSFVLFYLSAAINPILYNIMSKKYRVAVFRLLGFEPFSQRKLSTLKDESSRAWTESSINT
Structure (SMILES),AC50 [1] [µM],AC50 [2] [µM],AC50 (D(1A) dopamine receptor) [µM],AC50 [3] [µM],AC50 [4] [µM],AC50 (Histamine H1 receptor) [µM],AC50 [5] [µM],AC50 [6] [µM],AC50 [7] [µM],AC50 [8] [µM],AC50 [9] [µM],AC50 (Adenosine receptor A1) [µM],AC50 [10] [µM],AC50 [11] [µM],AC50 [12] [µM],AC50 (Vasopressin V2 receptor) [µM]
COc1ccccc1N1CCN(CC(O)COc2cccc3ccccc23)CC1 (stereo unspecified) [NAFTOPIDIL],0.2,9.6,> 30,> 30,0.84,0.75,6.3,> 10,2.2,> 30,0.3,> 30,> 30,,,
Cc1oc(=O)oc1CN1CCN(c2cc3c(cc2F)c(=O)c(C(=O)O)c2n3C(C)S2)CC1 (stereo unspecified) [PRULIFLOXACIN],> 30,,> 30,> 30,> 30,> 30,,,> 30,> 30,> 30,> 30,> 30,,,
CN1CCN(C2=Nc3ccccc3Sc3ccc(Cl)cc32)CC1 [CLOTHIAPINE],2.1,,> 30,> 30,1.3,0.02,,,> 30,> 30,1.3,> 30,1.2,,,
O=[N+]([O-])O[C@@H]1CO[C@H]2[C@@H]1OC[C@@H]2O [ISOSORBIDE MONONITRATE],> 10,> 10,> 10,> 10,> 10,> 10,> 10,,> 10,> 10,> 10,> 30,> 10,> 30,> 30,> 30
Cc1cc(C)c(NC(=O)CN(CC(=O)O)CC(=O)O)c(C)c1Br [MEBROFENIN],> 30,,> 30,> 30,> 30,> 30,,,> 30,> 30,> 30,> 30,> 30,,,
COC1=C(OC)C(=O)C(C/C=C(\C)CC/C=C(\C)CC/C=C(\C)CC/C=C(\C)CC/C=C(\C)CC/C=C(\C)CC/C=C(\C)CC/C=C(\C)CC/C=C(\C)CCC=C(C)C)=C(C)C1=O [UBIDECARENONE],> 30,,> 30,> 30,> 30,> 30,,,> 30,> 30,> 30,> 30,> 30,,,
CCCCCNC(=N)N/N=C/c1c[nH]c2ccc(OC)cc12 [TEGASEROD],0.771,0.495,0.34,> 30,0.343,> 30,> 30,> 30,4.9,13,3.37,> 30,> 30,11.4,11.4,20.3
COc1cc2nc(N3CCN(C(=O)c4ccco4)CC3)nc(N)c2cc1OC [PRAZOSIN],,> 10,> 10,> 10,26,,> 10,> 10,4.94,> 10,,> 30,,> 30,> 30,> 30
